Reference: paper PMC2798597 (Biochemical pharmacology, 2009)

Assays:
KBv200 (ABCB1) = assay: MTT cytotoxicity / MDR reversal; assay type: cell-based, human; details: KBv200 cells
KBv200 cells [1] = assay: Dox efflux; assay type: cell-based, human; details: 5 µM FG020326
KB cells [2] = assay: Dox efflux; assay type: cell-based, human; details: 5 µM FG020326
MCF-7/adr (ABCB1) = assay: MTT cytotoxicity / MDR reversal; assay type: cell-based, human; details: MCF-7/adr cells
KB cells [3] = assay: ABCB1 function analysis, Rho 123 retention; assay type: cell-based, human; details: drug sensitive KB cells
KB = assay: MTT cytotoxicity / MDR reversal; assay type: cell-based, human; details: KB cells
KB cells [4] = assay: Intracellular Dox accumulation; assay type: cell-based, human; details: drug sensitive KB cells; 0.625-10 µM
KBv200 cell xenografts = assay: MDR human carcinoma xenograft model; assay type: in vivo, athymic nude mice
SW1573 = assay: MTT cytotoxicity / MDR reversal; assay type: cell-based, human; details: SW1573 cells; +5 µM FG020326
[5] = test system: the entire cell lines tested; assay: MTT cytotoxicity of FG020326 alone; assay type: cell-based
MCF-7 = assay: MTT cytotoxicity / MDR reversal; assay type: cell-based, human; details: MCF-7 cells
S1 = assay: MTT cytotoxicity / MDR reversal; assay type: cell-based; details: S1 cells; +5 µM FG020326
SW1573/2R120 (LRP) = assay: MTT cytotoxicity / MDR reversal; assay type: cell-based, human; details: SW1573/2R120 cells; +5 µM FG020326
NIH3T3/MRP-4-2 (ABCC4) = assay: MTT cytotoxicity / MDR reversal; assay type: cell-based, murine; details: NIH3T3/MRP-4-2 cells; +5 µM FG020326
KB-3-1 = assay: MTT cytotoxicity / MDR reversal; assay type: cell-based, human; details: KB-3-1 cells; +5 µM FG020326
S1-M1-80 (ABCG2) = assay: MTT cytotoxicity / MDR reversal; assay type: cell-based; details: S1-M1-80 cells; +5 µM FG020326
[6] = test system: ABCB1 expression in KBv200 cells; details: 48 h, Western blot
KB-CV60 (ABCC1) = assay: MTT cytotoxicity / MDR reversal; assay type: cell-based, human; details: KB-CV60 cells; +5 µM FG020326
NIH3T3 = assay: MTT cytotoxicity / MDR reversal; assay type: cell-based, murine; details: NIH3T3 cells; +5 µM FG020326
KBv200 cells [7] = assay: Intracellular Dox accumulation; assay type: cell-based, human
ABCB1 = ABCB1 (Homo sapiens, UniProt P08183); assay type: biochemical; details: read-out: IC50, inhibition of ABCB1 ATPase activity; Vi-sensitive ATPase; membrane vesicles of High Five insect cells
[8] = FG020326 plasma levels in mice; assay type: in vivo; details: NIH mice, 100 mg/kg p.o.; for plasma concentration at 8 h: 8 h after administration
[9] = VCR experiment, VCR 0.2 mg/kg i.p. q2d×6, FG020326 100 mg/kg p.o. q2d×6
[10] = paclitaxel experiment, paclitaxel 18 mg/kg i.p. q5d×3, FG020326 100 mg/kg p.o.

Sequence of ABCB1 (P08183 whole entry): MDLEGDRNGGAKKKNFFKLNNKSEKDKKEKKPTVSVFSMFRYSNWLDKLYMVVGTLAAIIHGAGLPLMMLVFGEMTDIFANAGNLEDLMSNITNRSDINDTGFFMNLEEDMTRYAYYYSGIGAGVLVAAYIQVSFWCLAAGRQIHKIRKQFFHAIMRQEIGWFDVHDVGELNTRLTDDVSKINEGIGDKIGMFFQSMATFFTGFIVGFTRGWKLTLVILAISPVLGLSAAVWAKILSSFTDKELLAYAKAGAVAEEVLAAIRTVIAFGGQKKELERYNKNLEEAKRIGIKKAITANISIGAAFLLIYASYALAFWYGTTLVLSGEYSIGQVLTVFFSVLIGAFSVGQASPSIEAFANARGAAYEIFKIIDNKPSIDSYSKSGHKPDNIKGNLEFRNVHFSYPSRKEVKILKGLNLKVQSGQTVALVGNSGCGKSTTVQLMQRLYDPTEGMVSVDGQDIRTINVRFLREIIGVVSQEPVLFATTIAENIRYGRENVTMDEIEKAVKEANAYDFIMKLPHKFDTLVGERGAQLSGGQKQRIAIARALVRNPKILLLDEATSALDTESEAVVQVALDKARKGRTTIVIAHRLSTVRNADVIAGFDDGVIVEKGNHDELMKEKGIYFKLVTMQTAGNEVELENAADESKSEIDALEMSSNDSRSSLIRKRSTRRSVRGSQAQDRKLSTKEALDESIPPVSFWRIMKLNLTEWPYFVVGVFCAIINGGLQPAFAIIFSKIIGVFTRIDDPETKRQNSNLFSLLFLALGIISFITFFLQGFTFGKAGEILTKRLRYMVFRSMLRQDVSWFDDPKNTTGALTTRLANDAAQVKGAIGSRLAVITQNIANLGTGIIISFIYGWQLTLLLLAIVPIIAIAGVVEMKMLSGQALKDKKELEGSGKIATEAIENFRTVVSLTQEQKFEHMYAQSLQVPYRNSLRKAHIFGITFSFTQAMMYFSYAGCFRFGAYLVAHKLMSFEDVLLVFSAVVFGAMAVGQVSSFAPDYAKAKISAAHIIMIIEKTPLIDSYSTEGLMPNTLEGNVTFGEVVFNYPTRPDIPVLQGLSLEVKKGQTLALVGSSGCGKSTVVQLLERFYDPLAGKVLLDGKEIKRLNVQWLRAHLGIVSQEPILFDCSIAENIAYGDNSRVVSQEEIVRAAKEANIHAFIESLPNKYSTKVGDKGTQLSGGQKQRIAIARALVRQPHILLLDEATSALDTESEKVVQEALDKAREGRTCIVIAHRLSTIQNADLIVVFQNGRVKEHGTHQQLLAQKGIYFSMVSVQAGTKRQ

COC(=O)/C=C/c1ccc(-c2nc(-c3ccc(N(C)C(C)C)cc3)c(-c3ccc(N(C)C(C)C)cc3)[nH]2)cc1 [FG020326, 2-[(4-Methyl-trans-acrylate)phenyl]-4,5-bis-(4-N, N-methyl-isopropyl-aminophenyl)-1(H)-imidazole]
fold-reversal (doxorubicin) (KBv200 (ABCB1); +1.25 µM FG020326): (4.2) fold | fold-reversal (paclitaxel) (KBv200 (ABCB1); +1.25 µM FG020326): (5.0) fold | fold-reversal (vincristine) (KBv200 (ABCB1); +1.25 µM FG020326): (16.7) fold | fold-reversal (doxorubicin) (KBv200 (ABCB1); +2.5 µM FG020326): (8.0) fold | fold-reversal (paclitaxel) (KBv200 (ABCB1); +2.5 µM FG020326): (10.3) fold | fold-reversal (vincristine) (KBv200 (ABCB1); +2.5 µM FG020326): (34.7) fold | fold-reversal (doxorubicin) (KBv200 (ABCB1); +5 µM FG020326): (12.2) fold | fold-reversal (paclitaxel) (KBv200 (ABCB1); +5 µM FG020326): (30.4) fold | fold-reversal (vincristine) (KBv200 (ABCB1); +5 µM FG020326): (57.3) fold | effect on efflux of Dox (KBv200 cells [1]): significantly inhibited the efflux of Dox | effect on efflux of Dox (KB cells [2]): but not the KB cells | fold-reversal (doxorubicin) (MCF-7/adr (ABCB1); +1.25 µM FG020326): (6.4) fold | fold-reversal (paclitaxel) (MCF-7/adr (ABCB1); +1.25 µM FG020326): (3.5) fold | fold-reversal (vincristine) (MCF-7/adr (ABCB1); +1.25 µM FG020326): (2.3) fold | fold-reversal (doxorubicin) (MCF-7/adr (ABCB1); +2.5 µM FG020326): (9.6) fold | fold-reversal (paclitaxel) (MCF-7/adr (ABCB1); +2.5 µM FG020326): (8.8) fold | fold-reversal (vincristine) (MCF-7/adr (ABCB1); +2.5 µM FG020326): (4.6) fold | fold-reversal (cisplatin) (MCF-7/adr (ABCB1); +5 µM FG020326): (0.9) fold | fold-reversal (doxorubicin) (MCF-7/adr (ABCB1); +5 µM FG020326): (14.3) fold | fold-reversal (paclitaxel) (MCF-7/adr (ABCB1); +5 µM FG020326): (22.0) fold | fold-reversal (vincristine) (MCF-7/adr (ABCB1); +5 µM FG020326): (10.7) fold | effect on Rho 123 accumulation (KB cells [3]): not significantly altered | fold-reversal (doxorubicin) (KB; +1.25 µM FG020326): (1.0) fold | fold-reversal (paclitaxel) (KB; +1.25 µM FG020326): (1.0) fold | fold-reversal (vincristine) (KB; +1.25 µM FG020326): (1.0) fold | fold-reversal (doxorubicin) (KB; +2.5 µM FG020326): (1.0) fold | fold-reversal (paclitaxel) (KB; +2.5 µM FG020326): (1.0) fold | fold-reversal (vincristine) (KB; +2.5 µM FG020326): (1.0) fold | fold-reversal (5-FU) (KB; +5 µM FG020326): (1.0) fold | fold-reversal (doxorubicin) (KB; +5 µM FG020326): (0.9) fold | fold-reversal (paclitaxel) (KB; +5 µM FG020326): (1.1) fold | fold-reversal (vincristine) (KB; +5 µM FG020326): (1.0) fold | effect on intracellular accumulation of Dox (KB cells [4]): did not significantly alter the intracellular accumulation of Dox | Growth Inhibition (KBv200 cell xenografts; [9]): 9.4% | Weight of tumor (KBv200 cell xenografts; [9]): 2.43 ± 0.70 g | Growth Inhibition (KBv200 cell xenografts; [10]): 7.2% | Weight of tumor (KBv200 cell xenografts; [10]): 2.08 ± 1.00 g | fold-reversal (doxorubicin) (SW1573): (1.2) fold | Cell survival ([5]; all cell lines, concentrations used to reverse MDR, data not shown): > 90% | IC50 ([5]; read-out: IC50 (cytotoxicity of FG020326 alone), MTT, entire cell lines tested): > 50000 nM | fold-reversal (doxorubicin) (MCF-7; +1.25 µM FG020326): (1.0) fold | fold-reversal (paclitaxel) (MCF-7; +1.25 µM FG020326): (1.1) fold | fold-reversal (vincristine) (MCF-7; +1.25 µM FG020326): (0.9) fold | fold-reversal (doxorubicin) (MCF-7; +2.5 µM FG020326): (1.0) fold | fold-reversal (paclitaxel) (MCF-7; +2.5 µM FG020326): (1.0) fold | fold-reversal (vincristine) (MCF-7; +2.5 µM FG020326): (1.0) fold | fold-reversal (cisplatin) (MCF-7; +5 µM FG020326): (0.9) fold | fold-reversal (doxorubicin) (MCF-7; +5 µM FG020326): (0.9) fold | fold-reversal (paclitaxel) (MCF-7; +5 µM FG020326): (1.0) fold | fold-reversal (vincristine) (MCF-7; +5 µM FG020326): (0.9) fold | fold-reversal (topotecan) (S1): (1.1) fold | fold-reversal (doxorubicin) (SW1573/2R120 (LRP)): (1.0) fold | fold-reversal (vincristine) (NIH3T3/MRP-4-2 (ABCC4)): (0.9) fold | fold-reversal (vincristine) (KB-3-1): (0.9) fold | fold-reversal (topotecan) (S1-M1-80 (ABCG2)): (1.0) fold | effect on ABCB1 protein expression level [6]: no marked difference | fold-reversal (vincristine) (KB-CV60 (ABCC1)): (0.9) fold | fold-reversal (vincristine) (NIH3T3): (0.9) fold | enhancement of Dox accumulation (KBv200 cells [7]; 0.625 µM FG020326, 10 µM Dox): 1.4 fold | enhancement of Dox accumulation (KBv200 cells [7]; 1.25 µM FG020326, 10 µM Dox): 2.1 fold | enhancement of Dox accumulation (KBv200 cells [7]; 2.5 µM FG020326, 10 µM Dox): 2.6 fold | enhancement of Dox accumulation (KBv200 cells [7]; 5 µM FG020326, 10 µM Dox): 3.0 fold | enhancement of Dox accumulation (KBv200 cells [7]; 10 µM FG020326, 10 µM Dox): 3.7 fold | IC50 (ABCB1): 2500 nM | peak plasma concentration ([8]; 100 mg/kg): about 5.3 µM | plasma concentration at 8 h ([8]; 100 mg/kg): not less than 1.24 µM | plasma concentration at 8 h ([8]; listed as FG020236, 100 mg/kg): > 1240 nM | plasma concentration at 12 h ([8]; 12 h after administration): 920 nM | peak plasma concentration ([8]; listed as FG020236, 100 mg/kg): 5.3 µM
